Reference: article PMC11120720, “Linking Variability in Phytochemical Composition with Safety Profile of Thymus carnosus Boiss. Extracts: Effect of Major Compounds and Evaluation of Markers of Oxidative Stress and Cell Death” (International Journal of Molecular Sciences, 2024)
Like-named read-outs stand apart in the source and are kept apart here.

How the values were obtained:
[1] = Alamar Blue cell viability assay, Caco-2; format: cell-based, human; settings: human, Caco-2
Experimental: (§1) The safety profile of T. carnosus AD and HE extracts was evaluated in Caco-2 and HepG2 cells using an Alamar Blue® (Invitrogen; Alfagene, Lisboa, Portugal) assay. An initial screening was performed for all extracts at concentrations ranging between 100 and 1000 µg/mL. Due to the higher toxicity of the HE extracts, which was previously described for various extracts of Thymus species using the same extraction methods (e.g., T. mastichina and Thymus zygis), a different set of concentrations was used for the HE extracts (between 100 and 300 µg/mL for Caco-2 cells and 50 and 150 µg/mL for HepG2 cells). Figure 1 presents the data related to the cell viability assays in Caco-2 (panels A–E) and HepG2 cells (panels F–J) exposed to T. carnosus extracts, as indicated.
(§2) The safety profile of T. carnosus extracts was assessed in Caco-2 and HepG2 cells. Caco-2 (human colon adenocarcinoma cell line) were obtained from CLS (Cell Lines Service, Eppelheim, Germany), and HepG2 (human hepatocellular carcinoma cell line) were obtained from ATCC (American Type Culture Collection, Manassas, VA, USA).
(§3) Cell culture maintenance, handling, subculturing, and seeding were performed as described by Silva et al., 2020 [5], and cell viability was assessed using an Alamar Blue® assay, as described by Andreani et al., 2014 [64]. Concentrations ranged between 100 and 1000 µg/mL for AD extracts in both cell lines and 100 to 300 µg/mL or 50 to 150 µg/mL for HE extracts in Caco-2 and HepG2 cells, respectively. The effect of individual compounds on cell viability was assessed for concentrations ranging from 50 to 300 µM. All test solutions were prepared by diluting the samples in FBS-free culture media from the stock solutions described in Section 3.2, just prior to being used.
(§4) The results are presented as mean ± SD of at least three independent assays. The calculation of IC50 values was performed as described by Silva et al., 2020 [5]. Data analysis, graphical design, and statistical analysis were performed using Microsoft Office Excel (Professional Plus 2019; Microsoft Corporation, Washington, DC, USA) and GraphPad Prism (Version 8; GraphPad Software Inc., San Diego, CA, USA). Flow cytometry data analysis was performed using BD Accuri™ C6 Software, version 1.0.264.21 (Becton Dickinson, San Diego, CA, USA).

Caco-2 cells [2] = assay: Alamar Blue cell viability assay, Caco-2; format: cell-based, human; settings: Homo sapiens, Caco-2
Experimental: as §1, §2, §3, §4

[3] = Alamar Blue cell viability assay, HepG2; format: cell-based, human; settings: human
Experimental: as §1, §2, §3, §4

HepG2 cells [4] = assay: Alamar Blue cell viability assay, HepG2; format: cell-based, human; settings: Homo sapiens, HepG2
Experimental: as §1, §2, §3, §4

Caco-2 cells [5] = assay: Intracellular ROS (DCFDA, flow cytometry), Caco-2; format: cell-based; settings: compound 50 µM, 24 h
Experimental: (§5) The cells were then equally divided for each assay.
(§6) Intracellular ROS level assessment was performed as described by Silva et al., 2022 [65], using dichlorodihydrofluorescein diacetate (DCFDA). Cells obtained in the previous step were centrifuged, the supernatant discarded, and 200 µL of DCFDA (10 µM in FBS-free DMEM) was added. Cells were incubated for 45 min (37 °C, in the dark), washed to remove excess probe, and resuspended in PBS for data acquisition.

HepG2 cells [6] = assay: Intracellular ROS (DCFDA, flow cytometry), HepG2; format: cell-based, human; settings: compound 50 µM, 24 h
Experimental: as §5, §6

HepG2 cells [7] = assay: Mitochondrial membrane potential (JC-1, flow cytometry), HepG2; format: cell-based, human; settings: compound 50 µM, 24 h
Experimental: Flow cytometry was used to analyze the effect of T. carnosus extracts on intracellular ROS, modulation of mitochondrial membrane potential (MMP), cell cycle arrest, and apoptotic/necrotic cell death induction.
Both one- and two-color assays were performed using a BD Accuri™ C6 cytometer (Becton Dickinson, Franklin Lakes, NJ, USA), and 10,000 gated events were collected from each sample [1]. For flow cytometry assays, cells were handled as described previously but seeded at a density 5 × 10^4 cells/mL (750 μL/well) in 12-well plates. Caco-2 and HepG2 cells were incubated for 24 h with the extracts (100 µg/mL) or individual phytochemicals (50 µM) diluted in FBS-free culture media h. After incubation, test solutions were removed; the cells were washed with PBS and detached from the plates using trypsin-EDTA. Once transferred to centrifuge tubes, the cells were centrifuged (bench micro-centrifuge; 3000 rpm; 3 min), the supernatant was discarded, and a new wash cycle was performed. The cells were then equally divided for each assay. A negative control was used in all assays consisting of nonexposed cells incubated only with culture media.
Mitochondrial membrane potential (MMP) was evaluated using 5,5″,6,6″-tetrachloro-1,1″,3,3″-tetraethylbenzimidazolylcarbocyanineiodide (JC-1). Cells were processed as described for DCFDA but incubated with 200 µL of JC-1 (2 µM, in FBS-free DMEM) for 20 min (37 °C, in the dark).

Caco-2 cells [8] = assay: Cell cycle arrest (PI, flow cytometry), Caco-2; format: cell-based; settings: compound 50 µM, 24 h
Experimental: as §5
(§7) Cell cycle arrest assessment was performed as described in [1]. Cells were processed as described above until cell detachment and centrifuged, after which the second washing step was performed with ice-cold PBS (0 °C). After centrifugation, the supernatant was discarded, and cells were fixed with 500 µL of ethanol:PBS solution (70:30, % v/v, previously cooled at −20 °C) for at least 4 h at −20 °C. After fixation, two washing cycles were performed: the first with ice-cold PBS (0 °C) and the second with room-temperature PBS, followed by the addition of 200 µL of a PBS solution containing PI (50 µg/mL), RNAse A (50 µg/mL), and Triton X-100 (0.1%). Cells were incubated for 30 min at 37 °C, and then cells were washed once with PBS to remove the staining solution. After resuspension in PBS, the data were acquired.

HepG2 cells [9] = assay: Cell cycle arrest (PI, flow cytometry), HepG2; format: cell-based, human; settings: compound 50 µM, 24 h
Experimental: as §5, §7

Caco-2 cells [10] = assay: Annexin V-FITC/PI apoptosis/necrosis, Caco-2; format: cell-based; settings: compound 50 µM, 24 h
Experimental: as §5
(§8) For the assessment of apoptotic/necrotic cell death, an Annexin V-FITC (Thermo Fisher Scientific, Waltham, MA, USA) and propidium iodide (PI; Merck, Darmstadt, Germany) double-staining assay was used to evaluate the apoptotic/necrotic cell death induced by T. carnosus extracts and by individual phytochemicals, as described previously. Briefly, after detachment and washing, the supernatant was discarded, and 200 µL of Annexin V-FITC (1:200 dilution in Annexin-binding buffer [10 mM HEPES sodium salt, 150 mM NaCl, 5 mM KCl, 5 mM MgCl2, and 1.8 mM CaCl2; pH = 7.4]) was added. Cells were incubated for 20 min (room temperature, in the dark). After incubation, 5 µL of propidium iodide (PI; 50 µg/mL) was added, the cells were incubated for 5 min on ice (in the dark), and the data were acquired.

HepG2 cells [11] = assay: Annexin V-FITC/PI apoptosis/necrosis, HepG2; format: cell-based, human; settings: compound 50 µM, 24 h
Experimental: as §5, §8

[12] = test system: colorectal cancer cell line CT26; set-up: method as in PMID 29459827; settings: cited from earlier work
Caco-2 cells [13] = settings: Caco-2; cited from earlier work
HepG2 cells [14] = settings: cited from earlier work
[15] = test system: HCT-116 human colorectal carcinoma cells; settings: cited from earlier work
[16] = test system: hepatocarcinoma cells (HuH7); set-up: method as in PMID 20415421; settings: 20-80 µM; cited from earlier work
[17] = test system: human glioblastoma cells (DBTRG-05MG); set-up: method as in PMID 25131308; settings: cited from earlier work
[18] = test system: colorectal cancer (HCT15) cells; set-up: method as in PMID 12046077; settings: cited from earlier work
[19] = set-up: method as in PMID 31344882, PMID 26042707; settings: cited from earlier work
[20] = 24 h exposure, read-out: IC50 (µM) - Caco-2 cells: 24 h
[21] = 48 h exposure, read-out: IC50 (µM) - Caco-2 cells: 48 h
[22] = 24 h exposure, read-out: IC50 (µM) - HepG2 cells: 24 h
[23] = 48 h exposure, read-out: IC50 (µM) - HepG2 cells: 48 h

Structure (SMILES): O=C(/C=C/c1ccc(O)c(O)c1)O[C@H](Cc1ccc(O)c(O)c1)C(=O)O [Rosmarinic acid]
- viability at 24 h, 300 µM [1]: 87.8%
- viability at 48 h, 300 µM [1]: 72.6%
- IC50 (Caco-2 cells [2]; [20]): > 300 µM
- IC50 (Caco-2 cells [2]; [21]): > 300 µM
- viability at 24 h, 300 µM [3]: 65.2%
- IC50 (HepG2 cells [4]; [22]): > 300 µM
- IC50 (HepG2 cells [4]; [23]): > 300 µM
- change in intracellular ROS, Caco-2 (Caco-2 cells [5]): neither RA nor eriodictyol induced ROS increases
- change in intracellular ROS, HepG2 (HepG2 cells [6]): significant (p < 0.05) increase in intracellular HepG2 ROS levels
- MMP modulation, HepG2 (HepG2 cells [7]): slight decrease in MMP
- cell cycle effect, Caco-2 (Caco-2 cells [8]): cell cycle arrest in G0/G1
- cell cycle effect, HepG2 (HepG2 cells [9]): induced cell cycle arrest in both cell lines but in different phases
- cell death induction, Caco-2 (Caco-2 cells [10]): significant increase in both late apoptosis and necrosis
- cell death induction, HepG2 (HepG2 cells [11]): necrosis in HepG2 cells
- cell cycle effect, CT26 [12]: cell cycle arrest in G0/G1
- concentrations that did not reduce Caco-2 cell viability (Caco-2 cells [13]): ≤ 90 µM
- concentrations giving significant reduction in HepG2 cell viability (HepG2 cells [14]): ≥ 34.69 µM
- IC50 (HepG2 cells [14]; read-out: IC50 (48 h), HepG2 cells, 48 h): 91 µM
- cell cycle effect, HCT-116 [15]: cell cycle arrest in G0/G1

Structure (SMILES): C[C@H]1[C@H](C)CC[C@]2(C(=O)O)CC[C@]3(C)C(=CC[C@@H]4[C@@]5(C)CC[C@H](O)C(C)(C)[C@@H]5CC[C@]43C)[C@H]12 [Ursolic acid, ursolic acid]
- IC50 (Caco-2 cells [2]; [20]): 59 ± 1.35 µM
- IC50 (Caco-2 cells [2]; [21]): 44.3 ± 2.31 µM
- IC50 (HepG2 cells [4]; [22]): 79.6 ± 2.45 µM
- IC50 (HepG2 cells [4]; [23]): 75.2 ± 1.97 µM
- change in intracellular ROS, Caco-2 (Caco-2 cells [5]): increase in ROS
- change in intracellular ROS, HepG2 (HepG2 cells [6]): significant (p < 0.05) increase in intracellular HepG2 ROS levels
- MMP modulation, HepG2 (HepG2 cells [7]): slight increase
- cell cycle effect, Caco-2 (Caco-2 cells [8]; listed as UA): cell cycle arrest in G0/G1
- cell cycle effect, HepG2 (HepG2 cells [9]): no UA-induced cytostatic effect
- percentage of cells in late apoptosis, Caco-2 (Caco-2 cells [10]): ~ 70%
- percentage of cells in necrosis, Caco-2 (Caco-2 cells [10]): ~ 12%
- cell death induction, HepG2 (HepG2 cells [11]): only slightly increased (p < 0.05) the percentage of necrotic cells
- MMP modulation, HuH7 [16]: reduce MMP
- cell death type, DBTRG-05MG ([17]; 17.50 µM): mitochondria-dependent necrosis
- MMP modulation, DBTRG-05MG [17]: transient hyperpolarization of the mitochondria membrane
- cell cycle effect, HCT15 [18]: cytostatic effect in the G0/G1 phase
- lipophilicity [19]: high lipophilicity
- water solubility [19]: poor water solubility
- IC50 (HepG2 cells [14]; read-out: IC50, HepG2 cells, 72 h): 41 µM
